The nature of data set [1]: Mineral oil removal from aluminum coupon, sonication in solvent. The settings on record: sonicated 1 minute. As to the method:
In the following Examples and Comparative Examples, the cleaning ability of the alkoxy-substituted perfluorocompounds used in the cleaning process of the invention was further evaluated. A 1.28 cm×1.28 cm×0.225 cm wire-wrapped, aluminum coupon was coated with white heavy mineral oil (available from Aldrich Chemical) by immersing the coupon in an oil-filled beaker. The initial amount of the oil on the coupon was determined by weighing it on an analytical balance to the nearest 0.1 mg. The coupon was immersed in a container of solvent and sonicated for 1 minute at the indicated temperature (see Table 3 below for the solvents and temperatures used). The coupon was then weighed again, and the results were recorded in Table 3 as percent oil removal.

Data set [2] is described as follows: Closed cup flash point ASTM D3278-96. It is filed as physicochemical. As to the method: (§1) Various properties were measured for C4F9OCH3, CHClFCF2OCH3, and blends of each ether compound with cosolvent, trans-1,2-dichloroethylene (hereinafter, t-DCE) or n-butyl bromide, at various weight ratios.
Data set [3] can be described thus: Open cup flash point ASTM D1310-86. It is filed as physicochemical. As to the method:
as §1

Data set [4] in a line: Stability in the presence of acid (96% sulfuric acid, GLC). It is filed as physicochemical. Particulars: neat ether; sulfuric acid as in Stability in the Presence of Acid section. As to the method: To assess hydrolytic stability under acidic conditions, C4F9OCH3 (15 g, 0.06 mole) was combined with sulfuric acid (10 g of 96% by weight, 0.097 mole) in a 50 mL flask containing a stir bar and fitted with a reflux condenser. The resulting mixture was stirred for 16 hours at room temperature, and then the resulting upper fluorochemical phase was separated from the resulting lower sulfuric acid phase. […] Chem. 49, 4007 (1984), which states that “[f]luorine atoms attached to carbon which also bears an alkyl ether group are known to be labile to electrophilic reagents. They are readily hydrolyzed in concentrated sulfuric acid, thus providing a route to some esters of fluoroacids.”

Data set [5] is described as follows: Solvency properties: largest normal hydrocarbon alkane soluble at 50 percent by volume.
Procedure: A number of potential solvents were tested for their ability to dissolve hydrocarbons of increasing molecular weight according to the procedure described in U.S. Pat. No. 5,275,669 (Van Der Puy et al.), the description of which is incorporated herein by reference. The data shown in Table 1 were obtained by determining the largest normal hydrocarbon alkane which was soluble in a particular solvent at a level of 50 percent by volume. The numbers in the Table correspond with the carbon number of the largest alkane, e.g., “8” refers to octane. Measurements were made from room temperature up to the boiling point of the solvent. For comparative purposes, hydrofluorocarbons (HFCs) and perfluorocarbons (PFCs) were also tested using this method.
Using essentially the above-described method, the solvency properties of other alkoxy-substituted perfluorocompounds were tested at room temperature.
A short description of data set [6]: Rinse agent in co-solvent cleaning of solder flux. Particulars: solvating agent 1 minute at about 55° C., then 30 seconds in boiling solvent. How it is done:
The ability of alkoxy-substituted perfluorocompounds to function as a rinse agent in a co-solvent cleaning process was evaluated. The above-described aluminum coupon was coated with solder flux (available from Alpha Metals as Alpha 611 rosin, mildly activated flux) by immersing the coupon into a flux-filled beaker. The flux-coated coupon was then dried using a forced air convection drier. The initial amount of the flux on the coupon was determined by weighing it on an analytical balance to the nearest 0.1 mg. The coupon was immersed in a container of a mixed solvating agent comprising approximately 50% methyl decanoate and 50% dipropylene glycol di-n-butyl ether and was sonicated for 1 minute at approximately 55° C. The coupon was then immersed for 30 seconds into alkoxy-substituted perfluorocompound which had been heated to its boiling point. The coupon was weighed again, and the results were recorded in Table 5 below as percent oil removed from the coupon.

Data set [7] can be described thus: Perfluoropolyether oil removal in solvent vapor. Particulars: Brayco 815Z; vapor over boiling liquid, 60 seconds. How it is done: The above-described aluminum coupon was dipped into Brayco 815Z perfluoropolyether oil (available from Castrol Inc., molecular weight of about 10,000) and then immersed in alkoxy-substituted perfluorocompound vapor (over the boiling liquid) for 60 seconds. The percent oil removal was determined in the above-described manner.

A short description of data set [8]: Pump oil removal with boiling mixed terpenes/perfluorocompound mixture. The settings on record: boiling mixture 40 volume % mixed terpenes, 60 volume % fluorinated component. How it is done:
The above-described test coupon was dipped into DuoSeal Pump Oil (available from Sargent-Welch), was immersed in a boiling mixture of 40 volume % of a solvating agent comprising mixed terpenes having a boiling range of 243-274° C. and 60 volume % of alkoxy-substituted perfluorocompound (a cleaning composition of the invention), was cooled for 60 seconds, and was then immersed in mixture vapor for 30 seconds. The percent oil removal was determined in the above-described manner.

Data set [9] in a line: Pump oil removal with n-C6H14/perfluorocompound mixture at room temperature, ultrasonic. Particulars: 40 volume % n-C6H14, 60 volume % fluorinated component, 60 seconds. As to the method:
The above-described test coupon was dipped into DuoSeal Pump Oil (available from Sargent-Welch) and was then immersed in a mixture of 40 volume % n-C6H14 and 60 volume % alkoxy-substituted perfluorocompound (a cleaning composition of the invention) for 60 seconds at room temperature with ultrasonic agitation. The percent oil removal was determined in the above-described manner.

Data set [10] can be described thus: Paraffinic oil removal: solvating agent, then rinse in boiling solvent. Particulars: methyl caproate/dipropylene glycol di-n-butyl ether 30 seconds, boiling rinse 30 seconds. How it is done: The above-described test coupon was dipped into a paraffinic oil comprising a mixture of linear and branched hydrocarbons (DuoSeal Pump Oil, available from Sargent Welch), was immersed in mixed solvating agent comprising approximately 50% methyl caproate and 50% dipropylene glycol di-n-butyl ether for 30 seconds, and was then rinsed in boiling alkoxy-substituted perfluorocompound for 30 seconds. The percent oil removal was determined in the above-described manner.

A short description of data set [11]: Pump oil removal in vapor of boiling n-C6H14/perfluorocompound mixture. The settings on record: vapor of boiling 40 volume % n-C6H14, 60 volume % fluorinated component; 60 seconds. How it is done:
The above-described test coupon was dipped into DuoSeal Pump Oil (available from Sargent-Welch) and was then immersed in the vapor of a boiling mixture of 40 volume % n-C6H14 and 60 volume % alkoxy-substituted perfluorocompound (a cleaning composition of the invention), for 60 seconds. The percent oil removal was determined in the above-described manner.

Data set [12] can be described thus: Fluorinated oil removal from aluminum coupon. Particulars: Krytox 157FSM, room temperature. How it is done: Using essentially the same procedure as that described in Examples 8-10, the ability of the alkoxy-substituted perfluorocompounds to remove a fluorinated oil was evaluated. As in the previous Examples, a coupon was immersed in Krytox™ 157FSM perfluoropolyether oil having carboxylic acid end groups (available from DuPont), and the percent oil remaining after immersion in the solvent (at room temperature) was determined.

The nature of data set [13]: Flash point testing ASTM D3278-89. It is filed as physicochemical. As to the method: The alkoxy-substituted perfluorocompounds C4F9OCH3, C4F9OC2H5, and c-C6F11OCH3 were tested for flash point by the standard method defined by ASTM D3278-89.
A short description of data set [14]: Stability in the presence of base: aqueous NaOAc, fluoride ion measurement. It is filed as physicochemical. The settings on record: 10 g with 10 g 0.1M NaOAc, 110° C., 16 hours. How it is done: To assess hydrolytic stability, a ten gram sample of alkoxy-substituted perfluorocompound was combined with 10 g of 0.1M NaOAc and sealed in a 2.54 cm (internal diameter) by 9.84 cm Monel™ 400 alloy (66% nickel, 31.5% copper, and 1.2% iron and several minor components) tube (available from Paar Instrument Co. of Moline, Ill. as Part Number 4713cm). The tube was heated at 110° C. in a forced air convection oven for 16 hours. After cooling to room temperature, a 1 mL sample of the tube contents was diluted with 1 mL of total ionic strength adjustment buffer (TISAB, available from Orion Research, Inc., a mixture of 1,2-cyclohexylene dinitrilotetraacetic acid, deionized water, sodium acetate, sodium chloride, and acetic acid). The concentration of fluoride ion (resulting from any reaction of the perfluorocompound with the aqueous NaOAc) was measured using an Orion Model 720A Coulombmeter with a F-specific electrode which had been previously calibrated using 0.5 and 500 ppm F^− solutions. Based on the measured fluoride ion concentration, the rate at which HF had been generated by reaction of the aqueous NaOAc with the perfluorocompound was calculated.

A short description of data set [15]: Ability to dissolve halogenated oils (miscibility). Format: physicochemical. Particulars: room temperature. How it is done:
The ability of alkoxy-substituted perfluorocompounds to dissolve several halogenated oils was determined by adding a measured amount of oil to alkoxy-substituted perfluorocompound until the resulting mixture became turbid or phase-split. […] The results (shown in Table 12) indicate that alkoxy-substituted perfluorocompounds have very high ability to dissolve halogenated oils. Thus, the perfluorocompounds can be used as carrier solvents for halogenated oils in the deposition of coatings of such oils on substrate surfaces.

Setting [16] is: 20 weight % ether, 80 % n-butyl bromide.
Setting [17] is: 30 weight % ether, 70 % n-butyl bromide.
Setting [18] is: 50 weight % ether, 50 % n-butyl bromide.
Where [19] appears, read: 80 weight % ether, 20 % n-butyl bromide.

Turning to `FC(F)(Cl)C(F)(Cl)Cl` [CF2ClCFCl2, reference compound], the percent oil removal in data set [1] (23 ° C.) came out at 98.9%; in [1] (50 ° C.) it was 98.7%.

With `COC(F)(F)C(F)Cl` (stereo not shown) [CHClFCF2OCH3, 2-chloro-1,1,2-trifluoroethyl methyl ether, reference compound], the “Closed Cup Flash Point (ASTM D3278-96)” value in data set [2] (setting [16]) is listed as 50 (7) ° F. (° C.); in [2] (setting [17]), 45 (10) ° F. (° C.); in data set [2] (setting [18]), 45 (7) ° F. (° C.); in data set [2] (setting [19]), 50 (10) ° F. (° C.); in [2] (100 weight % ether, 0 % n-butyl bromide, raised to 140° F. (60° C.)), 45 (7) ° F. (° C.). Also, the “Open Cup Flash Point (ASTM D1310-86)” value in data set [3] (20 weight % ether, 80 % t-DCE) is 80 (27) ° F. (° C.); in data set [3] (50 weight % ether, 50 % t-DCE) it was 80 (27) ° F. (° C.); in data set [3] (80 weight % ether, 20 % t-DCE), 85 (29) ° F. (° C.); in [3] (100 weight % ether, 0 % t-DCE), 76 (24) ° F. (° C.). Besides, the “Stability in Presence of Acid: conversion to ester” value in [4] is recorded as 100%. Also, the “Largest Carbon Number of Longest Hydrocarbon Alkane to Dissolve” value in data set [5] (setting [16]) was 21; in data set [5] (20 weight % ether, 80 % t-DCE), 27; in [5] (setting [17]), 21; in data set [5] (setting [18]) it was 20; in data set [5] (50 weight % ether, 50 % t-DCE), 21; in [5] (setting [19]) it was 19. For the same compound, the “Largest Carbon Number of Longest Hydrocarbon Alkane to Dissolve” value is 19 in data set [5] (80 weight % ether, 20 % t-DCE); 18 in data set [5] (100 weight % ether, 0 % n-butyl bromide); 18 in [5] (100 weight % ether, 0 % t-DCE).

As to `FC(F)C(F)(F)C(F)(F)C(F)(F)C(F)(F)C(F)(F)F` [Example C6F13H, C6F13H, reference compound], in data set [6], the “% Removed” value is 91.2%. Further, the percent oil removal in data set [1] (23 ° C.) is recorded as 71.7%; in data set [1] (50 ° C.), 86.8%.

On to `FC(F)(F)C(F)(F)C(F)(F)C(F)(F)C(F)(F)C(F)(F)F` [Example C6F14, C6F14, reference compound], for which the “% Removed” value in [6] is 51.9%. In addition, the percent oil removal in data set [1] (23 ° C.) came to 54.9%; in data set [1] (50 ° C.) it was 67.6%. Moreover, the “Percent Soil Removed” value in [7] came to 92.9%; in data set [8], 75.7%; in data set [9], 88.5%; in [10], 89.2%; in data set [11], 73.8%.

Consider `COC1(F)C(F)(F)C(F)(F)C(F)(F)C(F)(F)C1(F)F` [c-C6F11OCH3], for which the “% Removed” value is recorded as 100.0% in [6] and 96.5% in [12]. For the same compound, the percent oil removal turned out to be 74.4% in data set [1] (23 ° C.), 96.5% in [1] (50 ° C.) and 99.8% in data set [1] (60 ° C.). Also, the Flash point entry in data set [13] is listed as “no flash point”. For the same compound, the “HF Generation Rate” value in data set [14] turned out to be 0.33 µg/g/h. Also, the Miscibility with solute result in [15] (Brayco 815Z Perfluoropolyether (MW about 10,000)), in data set [15] (Chlorotrifluoroethylene Fluid (Inland 41 Vacuum Pump Oil)) and in [15] (Fomblin AM-2001 Functionalized Perfluoropolyether) was “Miscible (greater than or equal to 50 percent by volume solubility at room temperature)” throughout.

For `FC(C(F)C(F)(F)C(F)(F)F)C(F)(F)F` (stereo not shown) [reference compound], in data set [14], the “HF Generation Rate” value was found to be 42.9 µg/g/h.

Source of the values: patent US20010044404A1, “Cleaning process and composition” (3M Innovative Properties Company, priority 1995, published 2001).
